Measured values published in article PMC7671475 (Journal of Inflammation Research, 2020).

biological target: Syk (spleen tyrosine kinase) (Homo sapiens, UniProt P43405); assay: ADP-Glo kinase assay with Promega Syk Kinase Enzyme System; assay type: biochemical

| IC50 [nM] | SMILES |
| --- | --- |
| 114 | O=C(/C=C/c1ccc(O)c(O)c1)O[C@H](Cc1ccc(O)c(O)c1)C(=O)O [RosA, rosmarinic acid] |
| 284 | O=c1cc(-c2ccc(O)cc2)oc2c([C@@H]3O[C@H](CO)[C@@H](O)[C@H](O)[C@H]3O)c(O)c([C@@H]3O[C@H](CO)[C@@H](O)[C@H](O)[C@H]3O)c(O)c12 [Vic-2, vicenin-2] |
| 160 | CC1=CC(=O)CC(C)(C)[C@@]1(O)/C=C/[C@@H](C)O[C@@H]1O[C@H](CO)[C@@H](O)[C@H](O)[C@H]1O [RosS, roseoside] |
